In paper PMC11217349, “Development of Nurr1 agonists from amodiaquine by scaffold hopping and fragment growing” (Communications Chemistry, 2024):
“And” between values parts separate entries of the source, which are not always exact repeats. Equal values may be shown once. Read-outs that look alike come from different tables or passages of the source.

Tests used:
[1] = molecular target: T1, human Nurr1 (hinge region and ligand binding domain) (Homo sapiens, UniProt P43354); test: Gal4-Nurr1 hybrid reporter gene assay; type: cell-based; settings: for max. activation: maximum effect vs. 0.1% DMSO control; for highest non-toxic concentration: Gal4-Nurr1 hybrid reporter gene assay
T1 construct: expressed in transfected cells; host or cells: HEK293T
Method: Nurr1 modulation was determined in a Gal4 hybrid reporter gene assay in HEK293T cells (German Collection of Microorganisms and Cell Culture GmbH, DSMZ) using pFR-Luc (Stratagene, La Jolla, CA, USA; reporter), pRL-SV40 (Promega, Madison, WI, USA; internal control) and pFA-CMV-hNurr1-LBD[14], coding for the hinge region and ligand binding domain of the canonical isoform of human Nurr1. […] After 24 h, the medium was changed to Opti-MEM without supplements, and cells were transiently transfected using Lipofectamine LTX reagent (Invitrogen, Carlsbad, CA, USA) according to the manufacturer’s protocol. Five hours after transfection, cells were incubated with the test compounds in Opti-MEM supplemented with penicillin (100 U/mL), streptomycin (100 μg/mL), and 0.1% DMSO for 16 h before luciferase activity was measured using the Dual-Glo Luciferase Assay System (Promega) according to the manufacturer’s protocol on a Tecan Spark luminometer (Tecan Deutschland GmbH, Crailsheim, Germany). Firefly luminescence was divided by Renilla luminescence and multiplied by 1000 resulting in relative light units (RLU) to normalize for transfection efficiency and cell growth. Fold activation was obtained by dividing the mean RLU of the test compound by the mean RLU of the untreated control. All samples were tested in at least three biologically independent experiments in duplicates. For dose-response curve fitting and calculation of EC50 values, the equation “[Agonist] vs. response -- Variable slope (four parameters)” was used in GraphPad Prism (version 7.00, GraphPad Software, La Jolla, CA, USA). Selectivity profiling was performed with identical procedures using pFA-CMV-Nur77-LBD[14], pFA-CMV-NOR-1-LBD[14], pFA-CMV-THRα-LBD[51], pFA-CMV-RARα-LBD[52], pFA-CMV-PPARα-LBD[53], pFA-CMV-PPARγ-LBD[53], pFA-CMV-PPARδ-LBD[53], pFA-CMV-LXRα-LBD[54], pFA-CMV-FXR-LBD[55] and pFA-CMV-hRXRα-LBD[56].

[2] = molecular target: T2, Nurr1 LBD (Homo sapiens, UniProt P43354); test: Isothermal titration calorimetry (ITC); type: binding; settings: 25 °C
T2 construct: Nurr1 LBD protein (5–30 µM, expressed as described previously[21]); made in house
Method: ITC experiments were conducted on an Affinity ITC instrument (TA Instruments, New Castle, DE) at 25 °C with a stirring rate of 75 rpm. Nurr1 LBD protein (5–30 µM, expressed as described previously[21]) in buffer (20 mM Tris pH 7.5, 100 mM NaCl, 5% glycerol) containing 1–4% DMSO was titrated with the test compounds (30–150 μM in the same buffer containing 1-4% DMSO) in 26 injections (1 × 1 µL, 25 × 3-4 μL) with an injection interval of 120-150 s. As control experiments, the test compounds were titrated to the buffer, and the buffer was titrated to the Nurr1 LBD protein under otherwise identical conditions. Results were analyzed using NanoAnalyze software (version 3.11.0, TA Instruments, New Castle, DE) with independent binding models.

[3] = Microsomal stability; type: in vitro ADME, rat; settings: incubation of 36 with rat liver microsomes, listed as 36-NH2
Method: To determine microsomal stability, test compounds (10 μM) were incubated in 100 mM potassium phosphate buffer at pH 7.4 (total volume of 100 µL) containing 0.5 mg/mL male rat liver microsomes (Sprague-Dawley, no. M9066, Merck KGaA, Darmstadt) and 1 mM NADPH for 0, 15, 30, or 60 min. At the end of the incubation time, microsomal activity was terminated by the addition of 500 µL MeCN and subsequent centrifugation at 1700 g for 5 min. A reaction mixture containing heat-inactivated microsomes (95 °C, 10 min) was prepared as a control for each compound. 5 µL supernatant of each sample was analyzed and the remaining concentrations of the respective test compounds at each time point were determined by LC-MS/MS on an API-3200-QTrap (Sciex) with an Agilent Technologies 1100 series setup including a binary pump (G1311A), a degasser (G1322A), and a Shimadzu SIL 20 A HT autosampler under the control of Analyst 1.6 (Sciex). A XBridge BEH C18 (3.5 µm, 150 mm×3 mm, Waters, protected with a 0.5 µm frit) stationary phase was used in combination with a gradient method starting with 0.1% formic acid in water (A) and MeCN (B) as mobile phase (A:B = 80:20) for 6 min going to A: B = 50:50 after 8 min. 5 µL of supernatant diluted in mobile phase starting conditions was loaded onto the column, separated at a flow rate of 400 µL/min, and detected and quantified per Area of MRM (multiple reaction monitoring) with the following transitions: m/z 381.797/145.000 (34); m/z 395.125/158.200 (36); m/z 409.822/131.000 (41); m/z 407.838/171.100 (42).

[4] = Parallel artificial membrane permeability assay (PAMPA); type: in vitro ADME; settings: 500 µM donor, pH 7.4, 18 h
Method: Passive lipid membrane diffusion of test compounds was determined using Merck Millipore MultiScreen Filter Plates (0.45 μm pore diameter, hydrophobic PVDF). The filter inserts were coated with 1% L-α-phosphatidylcholine (Fluka Analytical) in n-dodecan. The test compounds were then added to the donor compartment at a final concentration of 500 µM in a phosphate buffer pH 7.4 containing 5% DMSO with a total volume of 150 µL. The acceptor compartment was filled with 300 µL PBS containing 5% DMSO. Additionally, three equilibrium samples were prepared by directly adding the donor solution to the acceptor compartment for the calculation of log Pe values. The filter plates were incubated for 18 h before the test compound concentrations in the acceptor compartments and in the equilibrium, samples were determined by UV absorbance at 320 nm (34), 360 nm (36), 310 nm (41), or 315 nm (42) with external calibration in a 96 well quartz plate on a SpectraMax M2e microplate reader (Molecular Devices). logPe values were calculated according to the formula published by Sugano and colleagues.

[5] = Table 2, Nurr1 agonism, read-out: pEC50 (converted)
[6] = Gal4-Nurr1 hybrid reporter, HEK293T, mean ± SD, n ≥ 3
[7] = Gal4-Nurr1 hybrid reporter, HEK293T, mean ± SD, n ≥ 3, read-out: EC50(Nurr1)

T2 sequence (P43354 360-595 limits assumed): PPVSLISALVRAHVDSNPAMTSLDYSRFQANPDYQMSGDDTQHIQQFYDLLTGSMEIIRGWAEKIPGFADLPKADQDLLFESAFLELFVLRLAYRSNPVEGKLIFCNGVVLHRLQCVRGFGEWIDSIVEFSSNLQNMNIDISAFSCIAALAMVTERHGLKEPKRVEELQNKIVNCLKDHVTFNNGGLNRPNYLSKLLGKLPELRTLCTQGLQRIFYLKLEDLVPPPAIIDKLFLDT
T1 sequence (P43354 360-595 limits assumed): as above

max. activation ([1]; mean ± SD, n ≥ 3)	EC50 [1, 7] [µM]	SMILES	further results
1.7 ± 0.2 fold	15 ± 3	Nc1c(-c2ccc(Cl)cc2)nc2c(Cl)cccn12 [Compound 17]	
1.7 ± 0.1 fold	9 ± 3	Nc1c(-c2cccc(Cl)c2)nc2c(Cl)cccn12 [Compound 18]	
< 1.2-fold act.		Cc1cccc(-c2nc3c(Cl)cccn3c2N)c1 [Compound 21]	
1.8 fold and 1.8±0.1 fold		Nc1c(-c2ccc(Cl)c(Cl)c2)nc2c(Cl)cccn12 [Compound 24, 8-Chloro-2-(3,4-dichlorophenyl)imidazo[1,2-a]pyridine-3-amine]	EC50 [1, 5]: 0.398 µM; Kd [2]: 700 nM
1.6 ± 0.1 fold	14 ± 2	Cc1ccc(-c2nc3c(Cl)cccn3c2N)cc1C [Compound 25]	
1.8 ± 0.1 fold	1.6 ± 0.5	Cc1nc2c(Cl)cccn2c1NC(=O)c1ccc(-c2ccc(Cl)cc2)o1 [Compound 26]	Kd [2]: 700 nM
2.1 ± 0.1 fold	4 ± 1	Cc1nc2c(Cl)cccn2c1NC(=O)c1ccc(-c2ccccc2)o1 [Compound 27]	
2.0 ± 0.2 fold	0.13 ± 0.02	Cc1ccc(-c2ccc(C(=O)Nc3c(C)nc4c(Cl)cccn34)o2)cc1 [Compound 32]	
1.8 ± 0.1 fold	0.3 ± 0.02	CNc1ccc(-c2ccc(C(=O)Nc3c(C)nc4c(Cl)cccn34)o2)cc1 [Compound 35]	
<1.2-fold activation		Cc1nc2c(Cl)cccn2c1NC(=O)c1ccc(-c2ccc(N)cc2)o1 [Compound 38]	AUC x10^5 (LC-MS peak area of 36 and its demethylated metabolites) ([3]; time 0 min): 0.0604 x10^5 and 0.0553 x10^5 and 0.0561 x10^5 and 0.0573 x10^5; AUC x10^5 (LC-MS peak area of 36 and its demethylated metabolites) ([3]; time 15 min): 1.99 x10^5 and 2.08 x10^5 and 1.81 x10^5 and 1.95 x10^5; AUC x10^5 (LC-MS peak area of 36 and its demethylated metabolites) ([3]; time 60 min): 4.34 x10^5 and 4.54 x10^5 and 4 x10^5 and 5.57 x10^5

Continued, compound first:

SMILES	max. activation ([1]; mean ± SD, n ≥ 3)	EC50 [1, 7] [µM]	further results
CCN1CCN(c2cc(N3CCN(CC)CC3)nc(NCCNc3ccnc4cc(Cl)ccc34)n2)CC1 [Compound 1, reference compound]			EC50 [1, 5]: 20 µM
Cc1cc(N)c2cccc(Cl)c2n1 [Compound 3, 8-chloro-2-methylquinolin-4-amine, reference compound]	1.7 ± 0.1 fold		
O=C(Nc1ccnc2cc(Cl)ccc12)c1ccc(-c2ccc(Cl)cc2)o1 [Compound 4, reference compound]			EC50 [1, 5]: 15.8 µM
Cc1[nH]c2c(Cl)cccc2c1N [Compound 6, 7-chloro-2-methyl-1H-indol-3-amine]			EC50(Nurr1) [1, 6]: unstable
Cc1nc2cccc(Cl)c2[nH]1 [Compound 7, 4-Chloro-2-methyl-benzimidazole]			EC50(Nurr1) [1, 6]: inactive (100 µM)
Cc1nc2c(Cl)cccn2c1N [Compound 8, 8-Chloro-2-methylimidazo[1,2-a]pyridine-3-amine]	2.0 ± 0.1 fold	7 ± 1	Kd [2]: 2700 nM
Cc1nc2cc(Cl)ccn2c1N [Compound 9]			EC50(Nurr1) [1, 6]: inactive (100 µM); Kd (Nurr1 LBD) [2]: weak binding
Nc1cnc2c(Cl)cccn12 [Compound 12, 3-Amino-8-chloroimidazo[1,2-a]pyridine]			Kd [2]: 5100 nM
CC(C)c1nc2c(Cl)cccn2c1N [Compound 14]	< 1.2-fold act.		
Nc1c(-c2ccccc2)nc2c(Cl)cccn12 [Compound 15]	1.4 ± 0.1 fold	4 ± 2	
Nc1c(-c2ccco2)nc2c(Cl)cccn12 [Compound 16]	< 1.2-fold act.		
Nc1c(-c2ccccc2Cl)nc2c(Cl)cccn12 [Compound 19]			EC50(Nurr1) [1, 6]: inactive (100 µM)
Cc1ccc(-c2nc3c(Cl)cccn3c2N)cc1 [Compound 20]	2.0 ± 0.2 fold	12 ± 2	
Nc1c(-c2ccc(C(F)(F)F)cc2)nc2c(Cl)cccn12 [Compound 22]	< 1.2-fold act.		
Nc1c(-c2cccc(C(F)(F)F)c2)nc2c(Cl)cccn12 [Compound 23]	< 1.2-fold act.		
Cc1nc2c(Cl)cccn2c1NC(=O)c1ccc(-c2ccccc2)s1 [Compound 28]	2.1 ± 0.1 fold	3.2 ± 0.4	
Cc1nc2c(Cl)cccn2c1NC(=O)c1ccc(-c2ccccc2)cc1 [Compound 30]			highest non-toxic concentration ([1]; HEK293T): inactive (10 µM^b); EC50(Nurr1) [1, 6]: inactive (10 µM^b)
Cc1nc2c(Cl)cccn2c1NC(=O)c1ccc(-c2ccc(C(F)(F)F)cc2)o1 [Compound 31]	1.8 ± 0.1 fold	1.1 ± 0.3	
Cc1nc2c(Cl)cccn2c1NC(=O)c1ccc(-c2ccc(OC(F)(F)F)cc2)o1 [Compound 33]	2.0 ± 0.1 fold	0.8 ± 0.2	
CN(C)c1ccc(-c2ccc(C(=O)Nc3c(-c4ccc(Cl)c(Cl)c4)nc4c(Cl)cccn34)o2)cc1 [Compound 37, N-(8-Chloro-2-(3,4-dichlorophenyl)imidazo[1,2-a]pyridin-3-yl)-5-(4-(dimethylamino)phenyl)furan-2-carboxamidearboxamide]	1.53±0.04 fold	0.04 ± 0.01	Kd [2]: 80 nM
Cc1nc2c(Cl)cccn2c1NC(=O)c1ccc(-c2ccc(N3CCOCC3)cc2)o1 [Compound 39]			highest non-toxic concentration ([1]; HEK293T): inactive (10 µM^c); EC50(Nurr1) [1, 6]: inactive (10 µM^c)
Cc1nc2c(Cl)cccn2c1NC(=O)c1ccc(-c2ccc(N3CCN(C)CC3)cc2)o1 [Compound 40]			highest non-toxic concentration ([1]; HEK293T): inactive (10 µM^d); EC50(Nurr1) [1, 6]: inactive (10 µM^d)
CC(C)NCC(O)COc1cccc2ccccc12 (centres unmarked) [propranolol, reference compound]			logPe (PAMPA) [4]: -5.096 and -5.109 and -5.101 and -5.087 and -5.042 and -5.07
